Results: paper PMC12396409, “Screening and hit evaluation of a microbial metabolite library against the pathogenic Plasmodium falciparum and Toxoplasma gondii parasites” (International Journal for Parasitology: Drugs and Drug …, 2025)
Read-outs that look alike come from different tables or passages of the source.

Columns and labels:
[1] = test system: P. falciparum 3D7 parasites; assay: P. falciparum growth inhibition assay, 2-cycle (120 h treatment), delayed-death screen and dose-response; format: cell-based, Plasmodium falciparum; conditions: for activity at 2 µg/mL: Plasmodium falciparum
[2] = test system: P. falciparum 3D7 parasites; assay: P. falciparum growth inhibition assay, 1-cycle (72 h treatment), SYBR DNA staining (library screen at 2 μg/mL and dose-response); format: cell-based, Plasmodium falciparum; conditions: for activity at 2 µg/mL: Plasmodium falciparum
[3] = test system: T. gondii RH strain (RH-Tub-eYFP) tachyzoites; assay: microbe, parasite or virus in culture; format: cell-based, Toxoplasma gondii; conditions: 72 h; for percent parasite growth at 2 µg/mL: Toxoplasma gondii
[4] = library screen at 2 μg/mL, 120 h, % growth, replicate 1
[5] = library screen at 2 μg/mL, 120 h, % growth, replicate 2
[6] = library screen at 2 μg/mL, 72 h, % growth, replicate 1
[7] = library screen at 2 μg/mL, 72 h, % growth, replicate 2
[8] = library screen at 2 μg/mL, % growth, replicate 1
[9] = library screen at 2 μg/mL, % growth, replicate 2
[10] = 3D7, P. falciparum, 120 h, screen at 2 μg/mL, replicate 1, read-out: Pf_120h_%Growth_Rep1
[11] = 3D7, P. falciparum, 120 h, screen at 2 μg/mL, replicate 2, read-out: Pf_120h_%Growth_Rep2
[12] = 3D7, P. falciparum, 72 h, screen at 2 μg/mL, replicate 1, read-out: Pf_72h_%Growth_Rep1
[13] = 3D7, P. falciparum, 72 h, screen at 2 μg/mL, replicate 2, read-out: Pf_72h_%Growth_Rep2

In the case of `CC[C@H](C)[C@H]1O[C@]2(C=C[C@@H]1C)C[C@@H]1C[C@@H](C/C=C(\C)[C@@H](O[C@H]3C[C@H](OC)[C@@H](O[C@H]4C[C@H](OC)[C@@H](O)[C@H](C)O4)[C@H](C)O3)[C@@H](C)/C=C/C=C3\CO[C@@H]4[C@H](O)C(C)=C[C@H](C(=O)O1)[C@]34O)O2` [Avermectin B1a, epi-], the Pf_120h_%Growth_Rep1 [1, 4] is reported as 5.66%, the Pf_120h_%Growth_Rep2 [1, 5] is reported as -2.43% and the Pf_72h_%Growth_Rep1 [2, 6] is reported as 8.49%. For the same compound, the Pf_72h_%Growth_Rep2 [2, 7] was 20.73%, the Tg_72h_%Growth_Rep1 [3, 8] was 34.09% and the Tg_72h_%Growth_Rep2 [3, 9] was 40.50%.

In the case of `CO[C@H]1C[C@@H]2CC[C@@H](C)[C@@](O)(O2)C(=O)C(=O)N2CCCC[C@H]2C(=O)O[C@H]([C@H](C)C[C@@H]2CC[C@@H](O)[C@H](OC)C2)CC(=O)[C@H](C)/C=C(\C)[C@@H](O)[C@@H](OC)C(=O)[C@H](C)C[C@H](C)/C=C/C=C/C=C/1C` [Rapamycin], the activity at 2 µg/mL ([1]; 3D7, 120 h, P. falciparum, 120 h, parasite screen 2 μg/mL, % growth, replicate 1, read-out: Pf_120h_%Growth_Rep1) is reported as 104%, the activity at 2 µg/mL ([1]; 3D7, 120 h, P. falciparum, 120 h, parasite screen 2 μg/mL, % growth, replicate 2, read-out: Pf_120h_%Growth_Rep2) is reported as 102% and the activity at 2 µg/mL ([2]; 3D7, 72 h, P. falciparum, 72 h, parasite screen 2 μg/mL, % growth, replicate 1, read-out: Pf_72h_%Growth_Rep1) is reported as 86.2%. The activity at 2 µg/mL ([2]; 3D7, 72 h, P. falciparum, 72 h, parasite screen 2 μg/mL, % growth, replicate 2, read-out: Pf_72h_%Growth_Rep2) was 116%, the percent parasite growth at 2 µg/mL ([3]; T. gondii, parasite screen 2 μg/mL, % growth, replicate 1, read-out: Tg_72h_%Growth_Rep1) was 132% and the percent parasite growth at 2 µg/mL ([3]; T. gondii, parasite screen 2 μg/mL, % growth, replicate 2, read-out: Tg_72h_%Growth_Rep2) was 75.7%.

Compound `CCCCC[C@@]1(OC(=O)CCC(=O)O)CC[C@]2(CC[C@H](C)[C@@H](C/C=C(C)/C=C/[C@H](O)[C@@H](C)/C=C/C(=O)O)O2)O[C@H]1/C=C/C(C)=C/C(=O)O` [Reveromycin D] has a Pf_120h_%Growth_Rep1 ([1]; P. falciparum, 120 h, parasite screen 2 μg/mL, % growth, replicate 1) of 51.02%, a Pf_120h_%Growth_Rep2 ([1]; P. falciparum, 120 h, parasite screen 2 μg/mL, % growth, replicate 2) of 15.46% and a Pf_72h_%Growth_Rep1 ([2]; P. falciparum, 72 h, parasite screen 2 μg/mL, % growth, replicate 1) of 62.63%. It also gave a Pf_72h_%Growth_Rep2 ([2]; P. falciparum, 72 h, parasite screen 2 μg/mL, % growth, replicate 2) of 21.41%, a Tg_72h_%Growth_Rep1 ([3]; T. gondii, parasite screen 2 μg/mL, % growth, replicate 1) of 109.29% and a Tg_72h_%Growth_Rep2 ([3]; T. gondii, parasite screen 2 μg/mL, % growth, replicate 2) of 94.72%.

In the case of `O=C1NC(c2c[nH]c3ccc(O)cc23)=C/C1=C1\C(=O)Nc2ccccc21` [Violacein], the activity at 2 µg/mL [1, 10] is reported as 170%, the activity at 2 µg/mL [1, 11] is reported as 91.7% and the activity at 2 µg/mL [2, 12] is reported as 83.3%. The activity at 2 µg/mL [2, 13] was 90.2%, the percent parasite growth at 2 µg/mL ([3]; T. gondii, screen at 2 μg/mL, replicate 1, read-out: Tg_72h_%Growth_Rep1) was 85.9% and the percent parasite growth at 2 µg/mL ([3]; T. gondii, screen at 2 μg/mL, replicate 2, read-out: Tg_72h_%Growth_Rep2) was 106%.

`CCC1C=C(C)CC(C)CC(OC)C2OC(O)(C(=O)C(=O)N3CCCCC3C(=O)OC(C(C)=CC3CCC(Cl)C(OC)C3)C(C)C(O)CC1=O)C(C)CC2OC` (stereo not drawn) [BIA-P1385] was tested, and the Pf_120h_%Growth_Rep1 ([1]; P. falciparum 3D7, 120 h, parasite screen at 2 μg/mL, % growth, replicate 1) was 11.40%, the Pf_120h_%Growth_Rep2 ([1]; P. falciparum 3D7, 120 h, parasite screen at 2 μg/mL, % growth, replicate 2) was 13.77% and the Pf_72h_%Growth_Rep1 ([2]; P. falciparum 3D7, 72 h, parasite screen at 2 μg/mL, % growth, replicate 1) was 6.43%. The Pf_72h_%Growth_Rep2 ([2]; P. falciparum 3D7, 72 h, parasite screen at 2 μg/mL, % growth, replicate 2) was 7.66%, the Tg_72h_%Growth_Rep1 ([3]; T. gondii, parasite screen at 2 μg/mL, % growth, replicate 1) was 65.99% and the Tg_72h_%Growth_Rep2 ([3]; T. gondii, parasite screen at 2 μg/mL, % growth, replicate 2) was 84.21%.

For `NC(=O)C=Cc1ccccc1` [Cinnamamide], the activity at 2 µg/mL [1, 10] was 152%, the activity at 2 µg/mL [1, 11] was 94.1% and the activity at 2 µg/mL [2, 12] was 95%. It also gave an activity at 2 µg/mL [2, 13] of 81.9%, a percent parasite growth at 2 µg/mL ([3]; read-out: Tg_72h_%Growth_Rep1) of 85.6% and a percent parasite growth at 2 µg/mL ([3]; read-out: Tg_72h_%Growth_Rep2) of 87.3%.

For `CCCC[C@@H](C)[C@@H](OC(=O)C[C@@H](CC(=O)O)C(=O)O)[C@H](C[C@@H](C)CCCCCC[C@@H](O)C[C@H](O)[C@H](C)N)OC(=O)C[C@@H](CC(=O)O)C(=O)O` [Fumonisin B2], the Pf_120h_%Growth_Rep1 [1, 4] was 88.54%, the Pf_120h_%Growth_Rep2 [1, 5] was 108.75% and the Pf_72h_%Growth_Rep1 [2, 6] was 86.29%. The Pf_72h_%Growth_Rep2 [2, 7] was 114.27%, the Tg_72h_%Growth_Rep1 [3, 8] was 118.32% and the Tg_72h_%Growth_Rep2 [3, 9] was 95.97%.
